Counter-ions that a name gives are not always drawn.
How the values were obtained:
[1] = tested on: T47D cells; assay: Cell viability assay (CellTiterGlo); type: cell-based; details: Homo sapiens, 144 h, 6 days incubation, CellTiterGlo, read-out: T47D (IC50)
[2] = tested on: IEC6 cells; assay: Cell viability assay (CellTiterGlo); details: Rattus norvegicus, IEC-6, 144 h, read-out: IEC-6 (IC50, nM)
Method: (§1) Cell viability assay: LNCap, 22Rv1, MCF7, MDAMB361, T47D, and IEC6 cells were seeded at a density of 500-2000 cells/well in 96 well plates, and a ‘T0’ (timepoint 0) was included along with the assay plate. The plates were then incubated at 37° C., 5% CO2 in a cell culture incubator overnight. On the next day, the ‘T0’ plate was assayed using CellTiterGlo (Promega, Inc) according to the manufacturer's instructions. The appropriate compounds were diluted in DMSO and added to the assay plate (final DMSO concentration of 0.1-0.2%) on the next day. The assay plates were incubated for 6 days at 37° C., 5% CO2. After the incubation period, the plates were assayed using CellTiterGlo (Promega, Inc) according to the manufacturer's instructions and luminescence was read on the En Vision plate reader. […] GraphPadPrism was used to analyze the data and determine GI50/IC50 values.

[3] = target: T1, AR (cytosol from LnCaP cells) (Homo sapiens, UniProt P10275, T878A); assay: AR binding assay (3H-R1881 displacement)
T1 sequence (P10275 1-920 T878A): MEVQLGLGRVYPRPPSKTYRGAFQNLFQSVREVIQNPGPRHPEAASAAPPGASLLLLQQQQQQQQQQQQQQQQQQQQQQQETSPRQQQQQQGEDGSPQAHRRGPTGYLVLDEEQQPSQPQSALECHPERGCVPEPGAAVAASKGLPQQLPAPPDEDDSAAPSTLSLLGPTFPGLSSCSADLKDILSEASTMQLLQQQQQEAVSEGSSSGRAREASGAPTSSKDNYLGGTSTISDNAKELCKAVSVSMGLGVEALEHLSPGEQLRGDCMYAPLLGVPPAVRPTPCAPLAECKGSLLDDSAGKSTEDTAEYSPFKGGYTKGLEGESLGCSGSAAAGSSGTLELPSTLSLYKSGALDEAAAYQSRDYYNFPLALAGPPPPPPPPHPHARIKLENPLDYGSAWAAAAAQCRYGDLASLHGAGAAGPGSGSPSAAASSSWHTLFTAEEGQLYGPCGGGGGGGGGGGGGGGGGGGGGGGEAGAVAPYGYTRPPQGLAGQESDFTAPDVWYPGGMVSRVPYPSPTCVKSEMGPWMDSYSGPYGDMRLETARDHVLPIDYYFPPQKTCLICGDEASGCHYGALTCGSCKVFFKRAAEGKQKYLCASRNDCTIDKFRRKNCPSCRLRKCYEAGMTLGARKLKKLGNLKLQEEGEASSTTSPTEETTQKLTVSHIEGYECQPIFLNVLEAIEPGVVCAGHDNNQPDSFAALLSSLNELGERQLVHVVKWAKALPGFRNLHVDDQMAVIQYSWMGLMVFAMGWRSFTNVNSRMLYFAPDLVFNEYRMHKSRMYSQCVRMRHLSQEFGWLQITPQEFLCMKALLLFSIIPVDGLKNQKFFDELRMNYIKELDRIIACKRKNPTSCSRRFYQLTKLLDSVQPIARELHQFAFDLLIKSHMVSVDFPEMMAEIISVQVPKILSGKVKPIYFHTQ
Method: The plate was then centrifuged at 3000 rpm for 30 minutes at 4° C.

[4] = target: T2, Progesterone PR-B receptors from human breast carcinoma T47D cells (Homo sapiens, UniProt P06401); assay: PR binding assay ([3H] Progesterone displacement)
T2 sequence (P06401 1-933): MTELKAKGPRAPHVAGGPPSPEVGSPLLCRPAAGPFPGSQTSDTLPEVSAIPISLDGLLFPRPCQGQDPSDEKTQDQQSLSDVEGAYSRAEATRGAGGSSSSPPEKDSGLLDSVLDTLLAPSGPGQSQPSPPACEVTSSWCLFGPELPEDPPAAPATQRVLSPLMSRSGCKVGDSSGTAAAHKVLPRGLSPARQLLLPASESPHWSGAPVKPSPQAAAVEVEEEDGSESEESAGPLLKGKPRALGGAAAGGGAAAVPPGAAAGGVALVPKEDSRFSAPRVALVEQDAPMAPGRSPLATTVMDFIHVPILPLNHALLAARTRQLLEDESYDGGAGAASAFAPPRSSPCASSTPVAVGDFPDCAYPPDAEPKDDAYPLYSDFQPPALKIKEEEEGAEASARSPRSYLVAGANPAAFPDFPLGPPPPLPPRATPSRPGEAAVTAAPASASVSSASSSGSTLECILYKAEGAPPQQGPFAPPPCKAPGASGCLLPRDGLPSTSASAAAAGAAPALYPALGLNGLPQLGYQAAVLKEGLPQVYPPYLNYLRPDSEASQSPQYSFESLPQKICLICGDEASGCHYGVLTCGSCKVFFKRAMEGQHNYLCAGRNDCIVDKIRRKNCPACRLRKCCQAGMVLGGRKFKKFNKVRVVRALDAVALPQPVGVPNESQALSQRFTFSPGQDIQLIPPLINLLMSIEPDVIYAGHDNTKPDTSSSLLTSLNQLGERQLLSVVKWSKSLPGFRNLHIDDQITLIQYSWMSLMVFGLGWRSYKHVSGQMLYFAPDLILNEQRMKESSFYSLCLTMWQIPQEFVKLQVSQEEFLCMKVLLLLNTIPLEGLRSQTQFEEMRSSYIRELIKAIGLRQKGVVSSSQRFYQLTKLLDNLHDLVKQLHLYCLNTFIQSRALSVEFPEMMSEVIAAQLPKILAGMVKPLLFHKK

[5] = tested on: 22Rv1 cells; assay: Cell viability assay (CellTiterGlo); details: Homo sapiens, 22Rv1, 144 h, read-out: 22RV1 (IC50, nM)
Method: as §1

[6] = target: T3, Progesterone Receptor (PR)-LBD and coactivator peptide (Homo sapiens, UniProt P06401); assay: PR coactivator antagonist assay; details: 2.5 nM PR-LBD, 10 nM progesterone-induced fluorescence response
T3 sequence (P06401 679-913 limits assumed): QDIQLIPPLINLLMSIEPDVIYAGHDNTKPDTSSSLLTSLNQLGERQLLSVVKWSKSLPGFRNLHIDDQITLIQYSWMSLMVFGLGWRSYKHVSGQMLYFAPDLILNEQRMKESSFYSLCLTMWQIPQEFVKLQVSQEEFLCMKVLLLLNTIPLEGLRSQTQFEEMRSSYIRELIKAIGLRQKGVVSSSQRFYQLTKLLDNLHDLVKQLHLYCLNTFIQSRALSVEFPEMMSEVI

## CC[C@@]1(O)C(=O)OCc2c1cc1n(c2=O)Cc2c-1nc1cc(F)c(C)c3c1c2[C@@H](N(C)C(=O)COCC1CCN(CCCCCCCN(C)c2ccc([C@H]4C[C@@]5(C)[C@@H](CC[C@]5(OC(C)=O)C(C)=O)[C@@H]5CCC6=CC(=O)CCC6=C54)cc2)CC1)CC3 [Compound 55, (8S,11R,13S,14S,17R)-17-acetyl-11-(4-((7-(4-((2-(((1S,9S)-9-ethyl-5-fluoro-9-hydroxy-4-methyl-10,13-dioxo-2,3,9,10,13,15-hexahydro-1H,12H-benzo[de]pyrano[3′,4′:6,7]indolizino[1,2-b]quinolin-1-yl)(methyl)amino)-2-oxoethoxy)methyl)piperidin-1-yl)heptyl)(methyl)amino)phenyl)-13-methyl-3-oxo-2,3,6,7,8,11,12,13,14,15,16,17-dodecahydro-1H-cyclopenta[a]phenanthren-17-yl acetate]
[1]
  IC50: 101 to 1000 nM
[2]
  IC50: > 1000 nM
[3]
  IC50: 10 to 100 nM
[4]
  IC50: < 10 nM

## CC[C@@]1(O)C(=O)OCc2c1cc1n(c2=O)Cc2cc3c(CN(C)C)c(OC(=O)N4CCN(CC5CCN(c6ccc(C(=O)N[C@H]7CC[C@H](Oc8ccc(C#N)c(Cl)c8C)CC7)nn6)CC5)CC4)ccc3nc2-1 [Compound 31, (S)-10-((Dimethylamino)methyl)-4-ethyl-4-hydroxy-3,14-dioxo-3,4,12,14-tetrahydro-1H-pyrano[3′,4′:6,7]indolizino[1,2-b]quinolin-9-yl 4-((1-(6-(((1r,4r)-4-(3-chloro-4-cyano-2-methylphenoxy)cyclohexyl)carbamoyl)pyridazin-3-yl)piperidin-4-yl)methyl)piperazine-1-carboxylate Formate]
[5]
  IC50: 101 to 1000 nM
[2]
  IC50: 101 to 1000 nM
[3]
  IC50: < 10 nM
[4]
  IC50: < 10 nM

## CC[C@@]1(O)C(=O)OCc2c1cc1n(c2=O)Cc2cc3c(CN(C)C)c(OCC4CCN(C(=O)CN(C)c5ccc([C@H]6C[C@@]7(C)[C@@H](CC[C@]7(OC(C)=O)C(C)=O)[C@@H]7CCC8=CC(=O)CCC8=C76)cc5)CC4)ccc3nc2-1 [Compound No. 19, (8S,11R,13S,14S,17R)-17-Acetyl-11-(4-((2-(4-((((S)-10-((dimethylamino)methyl)-4-ethyl-4-hydroxy-3,14-dioxo-3,4,12,14-tetrahydro-1H-pyrano[3′,4′:6,7]indolizino[1,2-b]quinolin-9-yl)oxy)methyl)-piperidin-1-yl)-2-oxoethyl)(methyl)amino)phenyl)-13-methyl-3-oxo-2,3,6,7,8,11,12,13,14,15,16,17-dodeca-hydro-1H-cyclopenta[a]phenanthren-17-yl acetate]
[1]
  IC50: 101 to 1000 nM
[6]
  PR antagonism: a (IC50 =< 10 nM)
[2]
  IC50: > 1000 nM
[3]
  IC50: 10 to 100 nM
[4]
  IC50: < 10 nM

## CC[C@@]1(O)C(=O)OCc2c1cc1n(c2=O)Cc2c-1nc1cc(F)c(C)c3c1c2[C@@H](NCC1CCN(CC2CCN(C(=O)CN(C)c4ccc([C@H]5C[C@@]6(C)[C@@H](CC[C@]6(OC(C)=O)C(C)=O)[C@@H]6CCC7=CC(=O)CCC7=C65)cc4)CC2)CC1)CC3 [Compound No. 51, (8S,11R,13S,14S,17R)-17-acetyl-11-(4-((2-(4-((4-((((1S,9S)-9-ethyl-5-fluoro-9-hydroxy-4-methyl-10,13-dioxo-2,3,9,10,13,15-hexahydro-1H,12H-benzo[de]pyrano[3′,4′:6,7]indolizino[1,2-b]quinolin-1-yl)amino)methyl)piperidin-1-yl)methyl)piperidin-1-yl)-2-oxoethyl)(methyl)amino)phenyl)-13-methyl-3-oxo-2,3,6,7,8,11,12,13,14,15,16,17-dodecahydro-1H-cyclopenta[a]phenanthren-17-yl acetate]
[5]
  IC50: 10 to 100 nM
[2]
  IC50: 101 to 1000 nM
[3]
  IC50: < 10 nM
[4]
  IC50: < 10 nM

## CC[C@@]1(O)C(=O)OCc2c1cc1n(c2=O)Cc2cc3c(CN4CCN(C(=O)C5CCN(c6ccc(C(=O)N[C@H]7CC[C@H](Oc8ccc(C#N)c(Cl)c8C)CC7)nn6)CC5)CC4)c(OC(=O)N4C[C@H](C)N(C)C[C@H]4C)ccc3nc2-1 [Compound 30, (S)-10-((4-(1-(6-(((1r,4r)-4-(3-Chloro-4-cyano-2-methylphenoxy)cyclohexyl)carbamoyl)-pyridazin-3-yl)piperidine-4-carbonyl)piperazin-1-yl)methyl)-4-ethyl-4-hydroxy-3,14-dioxo-3,4,12,14-tetrahydro-1H-pyrano[3′,4′:6,7]indolizino[1,2-b]quinolin-9-yl (2R,5S)-2,4,5-trimethylpiperazine-1-carboxylate Formate]
[5]
  IC50: 101 to 1000 nM
[2]
  IC50: > 1000 nM
[3]
  IC50: < 10 nM
[4]
  IC50: < 10 nM

## CC[C@@]1(O)C(=O)OCc2c1cc1n(c2=O)Cc2c-1nc1cc(F)c(C)c3c1c2[C@@H](NC(=O)COCCCCCCN(C)c1ccc([C@H]2C[C@@]4(C)[C@@H](CC[C@]4(OC(C)=O)C(C)=O)[C@@H]4CCC5=CC(=O)CCC5=C42)cc1)CC3 [Compound No. 47, (8S,11R,13S,14S,17R)-17-acetyl-11-(4-((6-(2-(((1S,9S)-9-ethyl-5-fluoro-9-hydroxy-4-methyl-10,13-dioxo-2,3,9,10,13,15-hexahydro-1H,12H-benzo[de]pyrano [3′,4′:6,7]indolizino[1,2-b]quinolin-1-yl)amino)-2-oxoethoxy)hexyl)(methyl)amino)phenyl)-13-methyl-3-oxo-2,3,6,7,8,11,12,13,14,15,16,17-dodecahydro-1H-cyclopenta[a]phenanthren-17-yl acetate]
[1]
  IC50: 10 to 100 nM
[2]
  IC50: 101 to 1000 nM
[3]
  IC50: 10 to 100 nM
[4]
  IC50: < 10 nM

## CC[C@@]1(O)C(=O)OCc2c1cc1n(c2=O)Cc2cc3c(CN4CCN(CCCCCCN(C)c5ccc([C@H]6C[C@@]7(C)[C@@H](CC[C@]7(OC(C)=O)C(C)=O)[C@@H]7CCC8=CC(=O)CCC8=C76)cc5)CC4)c(O)ccc3nc2-1 [Compound 36, (8S,11R,13S,14S,17R)-17-acetyl-11-(4-((6-(4-(((S)-4-ethyl-4,9-dihydroxy-3,14-dioxo-3,4,12,14-tetrahydro-1H-pyrano[3′,4′:6,7]indolizino[1,2-b]quinolin-10-yl)methyl)piperazin-1-yl)hexyl)(methyl)amino)phenyl)-13-methyl-3-oxo-2,3,6,7,8,11,12,13,14,15,16,17-dodecahydro-1H-cyclopenta[a]phenanthren-17-yl acetate]
[1]
  IC50: 10 to 100 nM
[2]
  IC50: 101 to 1000 nM
[3]
  IC50: 10 to 100 nM
[4]
  IC50: < 10 nM

From patent US20260102501A1, “ANTI-CANCER NUCLEAR HORMONE RECEPTOR-TARGETING COMPOUNDS” (Nuvation Bio Inc., priority 2022, published 2026)
